Patent publication EP0404945A1 (priority 1989, dated 1990)
Read-outs that look alike come from different tables or passages of the source.

Key:
ascarid ovi = assay: animal or person; format: in vivo, pig.ascarid
houseflies [1] = assay: whole plant or invertebrate; details: Musca domestica; for mortality at 1 %: read-out: Death of flies, % Tests laboratory
[2] = system: virus of influenza, type A, (H1N1); assay: microbe, parasite or virus in culture
houseflies [3] = details: house fly, in vivo
Penicillium sporum = format: cell-based
Aspergillus niger = format: cell-based
Fusarium oxysporum = format: cell-based
Candida tropicalis = assay: microbe, parasite or virus in culture; format: cell-based
Alternaria radicina = format: cell-based
Staphylococcus aureus = assay: microbe, parasite or virus in culture; format: cell-based; details: read-out: Efficiency of the preparation, % Staphylococcus aureus
Helminthosporum saturem = format: cell-based
Venturia inaequalis = format: cell-based
Candida albicans = assay: microbe, parasite or virus in culture; format: cell-based
[4] = system: Infectant of poliomyelitis
Colibacillus = assay: microbe, parasite or virus in culture; format: cell-based; details: read-out: Efficiency of the preparation, % Colibacillus
Virus of hepatitis B = assay: microbe, parasite or virus in culture; details: 0.5 h, read-out: Death of viruses (%) at 30 minutes exposure, Virus of hepatitis B
[5] = 24 h, read-out: Death of ascarid ovi, % after 24 hours
[6] = 48 h, read-out: Death of ascarid ovi, % after 48 hours
[7] = 48 h, read-out: Death of flies, % after 48 hours
[8] = 72 h, read-out: Death of flies, % after 72 hours
[9] = H1N1, read-out: Virucidal activity of the preparation in respect of the virus of influenza, type A, %
[10] = read-out: Death of ascarid ovi, % Tests laboratory
[11] = 24 h, read-out: Death of ascarid ovi, % after 24 hrs
[12] = 72 h, read-out: Death of ascarid ovi, % after 72 hours
[13] = H1N1, 0.5 h, read-out: Death of viruses (%) at 30 minutes exposure, Virus of influenza A
[14] = 24 h, read-out: Death of flies, % after 24 hours
[15] = 2 h, read-out: Death of test fungi, % to the control, Candida tropicalis 2 hrs
[16] = 20 h, read-out: Death of test fungi, % to the control, Candida tropicalis 20 hrs
[17] = 2 h, read-out: Death of test fungi, % to the control, Candida albicans 2 hrs
[18] = 20 h, read-out: Death of test fungi, % to the control, Candida albicans 20 hrs

O=[N+]([O-])c1ccc(C(O)C(CCl)NP(=O)(O)Oc2ccccc2)cc1 (centres unmarked) [Example 58]
killing at 2 % (ascarid ovi; [5]): 95.4%
killing at 2 % (ascarid ovi; [6]): 100%
mortality at 2 % (houseflies [1]; [7]): 72%
mortality at 2 % (houseflies [1]; [8]): 99%
killing at 1 % [2, 9]: 83.4%
killing at 2 % [2, 9]: 86%

O=C(N[C@H](COP(=O)(NC(CCl)C(O)c1ccc([N+](=O)[O-])cc1)OC[C@@H](NC(=O)C(Cl)Cl)[C@H](O)c1ccc([N+](=O)[O-])cc1)[C@H](O)c1ccc([N+](=O)[O-])cc1)C(Cl)Cl (some centres unmarked) [Example 32]
killing at 3 % (ascarid ovi; [10]): 100%

O=[N+]([O-])c1ccc(C(Cl)C(CCl)NP(=O)(O)Oc2ccccc2)cc1 (centres unmarked) [Example 59, 1-para-nitrophenyl-1,3-dichloropropane--2-amidophosphoric acid monophenyl ether]
killing at 2 % (ascarid ovi; [5]): 91.8%
killing at 2 % (ascarid ovi; [6]): 100%
mortality at 2 % (houseflies [1]; [7]): 60%
mortality at 2 % (houseflies [1]; [8]): 91.2%
killing at 1 % [2, 9]: 92.3%
killing at 2 % [2, 9]: 96.1%

COP(=O)(NC(CCl)C(Cl)c1ccc([N+](=O)[O-])cc1)OC (centres unmarked) [Example 12, 1-para-nitrophenyl--1,3-dichloropropanamidophosphoric acid dimethyl ether]
killing at 3 % (ascarid ovi; [11]): 100%
killing at 3 % (ascarid ovi; [6]): 100%
killing at 3 % (ascarid ovi; [12]): 100%
mortality at 1 % (houseflies [1]): 71.4%
killing at 1 % [2, 13]: 85%

CCOP(=O)(NC(CCl)C(O)c1ccc([N+](=O)[O-])cc1)OCC (centres unmarked) [Example 13, 1-para-nitrophenyl-1-chloro-3-propanolamidophosphoric acid diethyl ether]
killing at 3 % (ascarid ovi; [11]): 100%
killing at 3 % (ascarid ovi; [6]): 100%
killing at 3 % (ascarid ovi; [12]): 100%
mortality at 1 % (houseflies [1]): 99.6%
killing at 1 % [2, 13]: 90%

CCOP(=O)(O)NC(CCl)C(Cl)c1ccc([N+](=O)[O-])cc1 (centres unmarked) [Example 31, 1-para-nitrophenyl-1,3-dichloropropanamidophosphor-ic acid ethyl ether]
killing at 3 % (ascarid ovi; [10]): 100%
mortality at 2 % (houseflies [1]; [7]): 44.2%
mortality at 2 % (houseflies [1]; [8]): 91.3%
killing at 1 % [2, 9]: 36.9%
killing at 2 % [2, 9]: 46.9%

COP(=O)(NC(CCl)C(O)c1ccc([N+](=O)[O-])cc1)OC (centres unmarked) [Example 11, 1-para-nitrophenyl-1-chloro-3-propanolamidophosphoric acid dimethyl ether]
killing at 3 % (ascarid ovi; [11]): 100%
killing at 3 % (ascarid ovi; [6]): 100%
killing at 3 % (ascarid ovi; [12]): 100%
mortality at 1 % (houseflies [1]): 67.7%
Death of flies, % Tests laboratory (houseflies [3]): 72.7%
killing at 1 % [2, 13]: 74%

O=[N+]([O-])c1ccc(C(O)C(CCl)NP(=O)(O)Nc2ccccc2)cc1 (centres unmarked) [Example 9]
killing at 3 % (ascarid ovi; [10]): 100%
mortality at 3 % (houseflies [1]; [14]): 65%
mortality at 3 % (houseflies [1]; [8]): 96%
killing at 1 % [2, 13]: 78%

O=[N+]([O-])c1ccc(C(Cl)C(CCl)NP(=O)(O)Nc2ccccc2)cc1 (centres unmarked) [Example 10, 1-para-nitrophenyl-1,3-dichloropropan--2-amidophosphoric acid monoanilide]
killing at 3 % (ascarid ovi; [10]): 100%
mortality at 3 % (houseflies [1]; [14]): 77%
mortality at 3 % (houseflies [1]; [8]): 99%
killing at 1 % [2, 13]: 87%

CCOP(=O)(O)NC(CO)C(O)c1ccc([N+](=O)[O-])cc1 (centres unmarked) [Example 29, 1-para-nitrophenyl-1,3-propanediolamidophos-phoric acid ethyl ether]
killing at 3 % (ascarid ovi; [10]): 100%
mortality at 2 % (houseflies [1]; [7]): 56%
mortality at 2 % (houseflies [1]; [8]): 92.3%
killing at 1 % [2, 9]: 83.3%
killing at 2 % [2, 9]: 86.7%

O=[N+]([O-])c1ccc(C(O)C(CCl)NP(=O)(Oc2ccccc2)Oc2ccccc2)cc1 (centres unmarked) [Example 5, diphenyl ether of 1-para-nitrophenyl-1--hydroxy-3-chloroisopropylamidophosphoric acid]
killing at 3 % (ascarid ovi; [10]): 100%
mortality at 3 % (houseflies [1]; [14]): 35.4%
mortality at 3 % (houseflies [1]; [8]): 96%
killing at 1 % [2, 13]: 100%

CNC(=S)S [Known ovocidal preparation (carbathion), sodium N-methyldithiocarbamate dihydrate, reference compound]
killing at 2 % (ascarid ovi; [5]): 60%
killing at 3 % (ascarid ovi; [11]): 100%
killing at 2 % (ascarid ovi; [6]): 80%
killing at 3 % (ascarid ovi; [6]): 100%
killing at 3 % (ascarid ovi; [10]): 80%

O=[N+]([O-])c1ccc(C(Cl)C(CCl)NP(=O)(Nc2ccccc2)Nc2ccccc2)cc1 (centres unmarked) [Example 8, 1-para- . -nitrophenyl-1,3-dichloroisopropylamidophosphoric acid dianilide]
killing at 3 % (ascarid ovi; [10]): 100%
mortality at 3 % (houseflies [1]; [14]): 66.4%
mortality at 3 % (houseflies [1]; [8]): 98%
killing at 1 % [2, 13]: 100%

O=[N+]([O-])c1ccc(C(O)C(CCl)NP(=O)(O)O)cc1 (centres unmarked) [Example 2, 1-para-nitrophenyl-1--chloro-3-propanolamidophosphoric acid]
Mycelium growth inhibition, % to the control, Penicillium sporum (Penicillium sporum): 68%
Mycelium growth inhibition, % to the control, Aspergillus niger (Aspergillus niger): 100%
killing at 3 % (ascarid ovi; [10]): 100%
Mycelium growth inhibition, % to the control, Fusarium oxisporum (Fusarium oxysporum): 69%
killing at 0.05 % (Candida tropicalis; [15]): 90%
killing at 0.05 % (Candida tropicalis; [16]): 100%
Mycelium growth inhibition, % to the control, Alternaria radicina (Alternaria radicina): 60%
killing at 0.5 % (Staphylococcus aureus): 100%
Mycelium growth inhibition, % to the control, Helminthosporum saturem (Helminthosporum saturem): 88%
Mycelium growth inhibition, % to the control, Venturia inaequalis (Venturia inaequalis): 64%
killing at 0.05 % (Candida albicans; [17]): 99%
killing at 0.05 % (Candida albicans; [18]): 100%
Death of viruses (%) at 60 minutes exposure, Infectant of poliomyelitis [4]: 60%
killing at 0.5 % (Colibacillus): 100%

CCOP(=O)(O)NC(CCl)C(O)c1ccc([N+](=O)[O-])cc1 (centres unmarked) [Example 30]
killing at 3 % (ascarid ovi; [10]): 100%
mortality at 2 % (houseflies [1]; [7]): 42.8%
mortality at 2 % (houseflies [1]; [8]): 94%
killing at 1 % [2, 9]: 71.2%
killing at 2 % [2, 9]: 79%

O=[N+]([O-])c1ccc(C(Cl)C(CCl)NP(=O)(Oc2ccccc2)Oc2ccccc2)cc1 (centres unmarked) [Example 6, 1-para-nitrophenyl-1,3-dichlorisopropylamidophosphoric acid diphenyl ether]
killing at 3 % (ascarid ovi; [10]): 100%
mortality at 3 % (houseflies [1]; [14]): 64.7%
mortality at 3 % (houseflies [1]; [8]): 98.6%
killing at 1 % [2, 13]: 100%

O=[N+]([O-])c1ccc(C(O)C(CCl)NP(=O)(Nc2ccccc2)Nc2ccccc2)cc1 (centres unmarked) [Example 7, 1-para-nitrophenyl-1-hydroxy-3-chloroisopro-pylamidophosphoric acid dianilide]
killing at 3 % (ascarid ovi; [10]): 100%
mortality at 3 % (houseflies [1]; [14]): 55.1%
mortality at 3 % (houseflies [1]; [8]): 94%
killing at 1 % [2, 13]: 100%

O=[N+]([O-])c1ccc(C(O)C(CO)NP(=O)(O)O)cc1 (centres unmarked) [Example 1, 1-para-netrophenyl-1,3--propanediolamidophosphoric acid]
Mycelium growth inhibition, % to the control, Penicillium sporum (Penicillium sporum): 58%
Mycelium growth inhibition, % to the control, Aspergillus niger (Aspergillus niger): 99%
killing at 3 % (ascarid ovi; [10]): 100%
Mycelium growth inhibition, % to the control, Fusarium oxisporum (Fusarium oxysporum): 68%
killing at 0.05 % (Candida tropicalis; [15]): 96%
killing at 0.05 % (Candida tropicalis; [16]): 100%
Mycelium growth inhibition, % to the control, Alternaria radicina (Alternaria radicina): 75%
killing at 0.5 % (Staphylococcus aureus): 80%
Mycelium growth inhibition, % to the control, Helminthosporum saturem (Helminthosporum saturem): 54%
Mycelium growth inhibition, % to the control, Venturia inaequalis (Venturia inaequalis): 32%
killing at 0.05 % (Candida albicans; [17]): 98%
killing at 0.05 % (Candida albicans; [18]): 100%
Death of viruses (%) at 60 minutes exposure, Infectant of poliomyelitis [4]: 40%
killing at 0.5 % (Colibacillus): 100%

CCOP(=O)(NC(CCl)C(Cl)c1ccc([N+](=O)[O-])cc1)OCC (centres unmarked) [Example 14, 1-para-nitrophenyl-1,3--dichloropropanamidophosphoric acid diethyl ether]
killing at 3 % (ascarid ovi; [11]): 100%
killing at 3 % (ascarid ovi; [6]): 100%
killing at 3 % (ascarid ovi; [12]): 100%
killing at 1 % [2, 13]: 90%

O=S(=O)(NCl)c1ccccc1 [Known bactericidal preparation, Sodium N-Chlorobenzenesulphamide, reference compound]
killing at 0.5 % (Staphylococcus aureus): 100%
killing at 0.5 % (Colibacillus): 100%
killing at 1 % [2, 9]: 22%
killing at 2 % [2, 9]: 28%

O=S(=O)(NCl)c1ccccc1 [Known preparation]
killing at 1 % (Virus of hepatitis B): 50%
mortality at 3 % (houseflies [1]; [14]): 86%
mortality at 2 % (houseflies [1]; [7]): 81%
mortality at 2 % (houseflies [1]; [8]): 84%
mortality at 3 % (houseflies [1]; [8]): 92%
killing at 1 % [2, 13]: 25%

O=C1C(Cl)=C(Cl)C(=O)c2ccccc21 [Phygon, 2,3-dichloronaphtho-quinone-1,4, reference compound]
Mycelium growth inhibition, % to the control, Penicillium sporum (Penicillium sporum): 100%
Mycelium growth inhibition, % to the control, Aspergillus niger (Aspergillus niger): 100%
Mycelium growth inhibition, % to the control, Fusarium oxisporum (Fusarium oxysporum): 58%
killing at 0.05 % (Candida tropicalis; [15]): 76%
killing at 0.05 % (Candida tropicalis; [16]): 100%
Mycelium growth inhibition, % to the control, Alternaria radicina (Alternaria radicina): 94%
Mycelium growth inhibition, % to the control, Helminthosporum saturem (Helminthosporum saturem): 92%
Mycelium growth inhibition, % to the control, Venturia inaequalis (Venturia inaequalis): 98%
killing at 0.05 % (Candida albicans; [17]): 68%
killing at 0.05 % (Candida albicans; [18]): 100%
